# Measurements as given in BindingDB's records for doi:10.1016/S0960-894X(97)00090-5 (1997).
# Peptide text beside a SMILES is read from it.
# Assay: The concentration of compound required to prevent 50 percent of cells from adhering to MAdCAM-1
row,IC50 [µM],SMILES
1,219,CC(=O)N[C@@H](CC(C)C)C(=O)NCC(CC(=O)O)S(=O)(=O)N[C@H](C(N)=O)C(C)C (stereo partly drawn) [4-((S)-2-Acetylamino-4-methyl-pentanoylamino)-3-((S)-1-carbamoyl-2-methyl-propylsulfamoyl)-butyric acid]
2,126,CC(=O)N[C@@H](CC(C)C)C(=O)N[C@@H](CC(=O)O)C(=O)N[C@H](C(N)=O)C(C)C [(S)-3-((S)-2-Acetylamino-4-methyl-pentanoylamino)-N-((S)-1-carbamoyl-2-methyl-propyl)-succinamic acid] (Ac-Leu-Asp-Val-NH2)
3,276,"CC(=O)N[C@@H](CC(C)C)C(=O)N[C@@H](CC(=O)O)C(=O)N[C@H](C(N)=O)[C@@H](C)O [(S)-3-((S)-2-Acetylamino-4-methyl-pentanoylamino)-N-((1S,2R)-1-carbamoyl-2-hydroxy-propyl)-succinamic acid] (Ac-Leu-Asp-Thr-NH2)"
4,> 500,CC(=O)N[C@@H](CC(C)C)C(=O)NCC(CC(=O)O)S(=O)(=O)N[C@H](C(N)=O)[C@@H](C)O (stereo partly drawn) [4-((S)-2-Acetylamino-4-methyl-pentanoylamino)-3-((S)-1-carbamoyl-2-(R)-hydroxy-propylsulfamoyl)-butyric acid]
